Test results taken from PubChem BioAssay (NCI).
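96-well plates; 48 h exposure; 5 concentrations. Endpoints by linear interpolation between flanking doses. Not reached: highest tested concentration assigned. At the TGI there is no net growth.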

What was measured:
Experiment in all cases: DTP human tumour cell line panel, 48 h
[1] = system: LOX IMVI melanoma
[2] = system: IGROV1 ovarian
[3] = system: SNB-19 CNS
[4] = system: 786-0 renal
[5] = system: XF 498 CNS
[6] = system: RPMI-8226 leukemia
[7] = system: SK-MEL-28 melanoma
[8] = system: UACC-257 melanoma
[9] = system: M14 melanoma
[10] = system: HL-60(TB) leukemia
[11] = system: DMS 273 small cell lung
[12] = system: RXF 393 renal
[13] = system: HT29 colon
[14] = system: DMS 114 small cell lung
[15] = system: UACC-62 melanoma
[16] = system: K-562 leukemia
[17] = system: NCI-H460 lung
[18] = system: KM20L2 colon
[19] = system: A549 NSCLC
[20] = system: SF-268 CNS
[21] = system: RXF-631 renal
[22] = system: NCI-H522 lung
[23] = system: OVCAR-4 ovarian
[24] = system: SR leukemia
[25] = system: HCC-2998 colon
[26] = system: SK-OV-3 ovarian
[27] = system: LXFL 529 NSCLC
[28] = system: UO-31 renal
[29] = system: TK-10 renal
[30] = system: OVCAR-3 ovarian
[31] = system: MOLT-4 leukemia
[32] = system: OVCAR-8 ovarian
[33] = system: U251 CNS
[34] = system: HOP-92 NSCLC
[35] = system: CCRF-CEM leukemia
[36] = system: HOP-62 NSCLC
[37] = system: DLD-1 colon
[38] = system: SW-620 colon
[39] = system: HCT-15 colon
[40] = system: SK-MEL-5 melanoma
[41] = system: COLO 205 colon
[42] = system: ACHN renal
[43] = system: NCI-H23 lung
[44] = system: HCT-116 colon
[45] = system: HOP-18 NSCLC
[46] = system: EKVX NSCLC
[47] = system: SN12C renal
[48] = system: M19-MEL melanoma
[49] = system: OVCAR-5 ovarian
[50] = system: SF-539 CNS
[51] = system: MALME-3M melanoma
[52] = system: CAKI-1 renal
[53] = system: SF-295 CNS
[54] = system: SK-MEL-2 melanoma
[55] = system: NCI-H226 lung
[56] = system: KM12 colon
[57] = system: SNB-75 CNS
[58] = system: SNB-78 CNS
[59] = system: A498 renal

For `COC(=O)NN/C=C(\C=Nc1ccccc1)[N+](=O)[O-]`, the TGI [1] was > 100 µM, the TGI [2] was > 100 µM and the TGI [3] was > 100 µM. For the same compound, the TGI [4] was > 100 µM, the TGI [5] was > 100 µM and the TGI [6] was > 100 µM. The TGI [7] was > 100 µM, the TGI [8] was > 100 µM and the TGI [9] was > 100 µM. The TGI [10] was > 100 µM, the TGI [11] was > 100 µM and the TGI [12] was > 100 µM. For the same compound, the TGI [13] was > 100 µM, the TGI [14] was > 100 µM and the TGI [15] was > 100 µM. For the same compound, the TGI [16] was > 100 µM, the TGI [17] was > 100 µM and the TGI [18] was > 100 µM. The TGI [19] was > 100 µM, the TGI [20] was > 100 µM and the TGI [21] was > 100 µM. The TGI [22] was > 100 µM, the TGI [23] was > 100 µM and the TGI [24] was > 100 µM. For the same compound, the TGI [25] was > 100 µM, the TGI [26] was > 100 µM and the TGI [27] was > 100 µM. The TGI [28] was > 100 µM, the TGI [29] was > 100 µM and the TGI [30] was > 100 µM. For the same compound, the TGI [31] was > 100 µM, the TGI [32] was > 100 µM and the TGI [33] was > 100 µM. The TGI [34] was > 100 µM, the TGI [35] was > 100 µM and the TGI [36] was > 100 µM. For the same compound, the TGI [37] was > 100 µM, the TGI [38] was > 100 µM and the TGI [39] was > 100 µM. The TGI [40] was > 100 µM, the TGI [41] was > 100 µM and the TGI [42] was > 100 µM. The TGI [43] was > 100 µM, the TGI [44] was > 100 µM and the TGI [45] was > 100 µM. For the same compound, the TGI [46] was > 100 µM, the TGI [47] was > 100 µM and the TGI [48] was > 100 µM.

Work on `C=C(CS(=O)(=O)c1ccccc1)C(=O)OCC` yielded a TGI [1] of 24.2 µM, a TGI [2] of 38.8 µM and a TGI [3] of 37.9 µM. For the same compound, the TGI [4] was 31.9 µM, the TGI [5] was 33.4 µM and the TGI [7] was 28.9 µM. It also gave a TGI [49] of 34.8 µM, a TGI [8] of 25.9 µM and a TGI [9] of 24.2 µM. The TGI [11] was 35.5 µM, the TGI [12] was 24.4 µM and the TGI [13] was 23.3 µM. For the same compound, the TGI [50] was 33.2 µM, the TGI [51] was 39.1 µM and the TGI [14] was 25.7 µM. It also gave a TGI [15] of 13.8 µM, a TGI [16] of 35 µM and a TGI [17] of 35.4 µM. The TGI [52] was 33.9 µM, the TGI [18] was 45.3 µM and the TGI [19] was 37.1 µM. It also gave a TGI [20] of 40 µM, a TGI [21] of 16.8 µM and a TGI [22] of 12.9 µM. It also gave a TGI [25] of 35.1 µM, a TGI [26] of 28 µM and a TGI [27] of 27 µM. For the same compound, the TGI [28] was 35.4 µM, the TGI [29] was 31.8 µM and the TGI [30] was 26.5 µM. It also gave a TGI [53] of 32 µM, a TGI [31] of 17.8 µM and a TGI [32] of 22.4 µM. For the same compound, the TGI [33] was 30.7 µM, the TGI [54] was 35 µM and the TGI [34] was 40 µM. For the same compound, the TGI [35] was 12.2 µM, the TGI [55] was 58.1 µM and the TGI [56] was 32.6 µM. It also gave a TGI [37] of 21.4 µM, a TGI [38] of 29.2 µM and a TGI [39] of 35 µM. For the same compound, the TGI [41] was 38.9 µM, the TGI [42] was 29.5 µM and the TGI [43] was 37.2 µM. For the same compound, the TGI [44] was 29.9 µM, the TGI [46] was 39.9 µM and the TGI [47] was 31.1 µM. It also gave a TGI [57] of 32 µM.

In the case of `COc1ccccc1/C=C1\N=C(C)OC1=O`, the TGI [2] was > 100 µM, the TGI [3] was > 100 µM and the TGI [5] was > 100 µM. For the same compound, the TGI [58] was > 100 µM, the TGI [7] was > 100 µM and the TGI [49] was > 100 µM. The TGI [9] was > 100 µM, the TGI [12] was > 100 µM and the TGI [13] was > 100 µM. The TGI [51] was > 100 µM, the TGI [15] was > 100 µM and the TGI [16] was > 100 µM. The TGI [52] was > 100 µM, the TGI [18] was > 100 µM and the TGI [21] was > 100 µM. For the same compound, the TGI [22] was > 100 µM, the TGI [23] was > 100 µM and the TGI [24] was > 100 µM. The TGI [25] was > 100 µM, the TGI [26] was > 100 µM and the TGI [28] was > 100 µM. For the same compound, the TGI [29] was > 100 µM, the TGI [30] was > 100 µM and the TGI [53] was > 100 µM. For the same compound, the TGI [31] was > 100 µM, the TGI [32] was > 100 µM and the TGI [33] was > 100 µM. For the same compound, the TGI [54] was > 100 µM, the TGI [34] was > 100 µM and the TGI [35] was > 100 µM. The TGI [56] was > 100 µM, the TGI [37] was > 100 µM and the TGI [38] was > 100 µM. For the same compound, the TGI [39] was > 100 µM, the TGI [40] was > 100 µM and the TGI [41] was > 100 µM. For the same compound, the TGI [43] was > 100 µM, the TGI [47] was > 100 µM and the TGI [48] was > 100 µM.

With `Cc1ccc(S(=O)(=O)Nc2cccc(C)c2C)cc1` the TGI [1] was > 100 µM, the TGI [2] was > 100 µM and the TGI [3] was > 100 µM. For the same compound, the TGI [4] was > 100 µM, the TGI [6] was > 100 µM and the TGI [58] was > 100 µM. The TGI [7] was 81.5 µM, the TGI [49] was > 100 µM and the TGI [8] was > 100 µM. The TGI [9] was > 100 µM, the TGI [10] was 87.1 µM and the TGI [11] was > 100 µM. For the same compound, the TGI [59] was > 100 µM, the TGI [12] was 84 µM and the TGI [13] was > 100 µM. The TGI [50] was > 100 µM, the TGI [51] was > 100 µM and the TGI [14] was > 100 µM. For the same compound, the TGI [15] was > 100 µM, the TGI [16] was > 100 µM and the TGI [17] was > 100 µM. The TGI [19] was > 100 µM, the TGI [20] was > 100 µM and the TGI [21] was > 100 µM. For the same compound, the TGI [23] was > 100 µM, the TGI [24] was > 100 µM and the TGI [25] was > 100 µM. The TGI [26] was > 100 µM, the TGI [27] was > 100 µM and the TGI [28] was > 100 µM. For the same compound, the TGI [29] was > 100 µM, the TGI [30] was > 100 µM and the TGI [53] was > 100 µM. For the same compound, the TGI [31] was > 100 µM, the TGI [32] was > 100 µM and the TGI [33] was 79.9 µM. The TGI [34] was > 100 µM, the TGI [35] was > 100 µM and the TGI [36] was > 100 µM. For the same compound, the TGI [55] was > 100 µM, the TGI [56] was > 100 µM and the TGI [38] was > 100 µM. For the same compound, the TGI [39] was > 100 µM, the TGI [40] was > 100 µM and the TGI [41] was > 100 µM. For the same compound, the TGI [43] was > 100 µM, the TGI [44] was > 100 µM and the TGI [45] was > 100 µM. The TGI [46] was > 100 µM, the TGI [47] was > 100 µM and the TGI [57] was 86.8 µM. For the same compound, the TGI [48] was > 100 µM.
